One test has as its system tumors. The experiment in a line: Survival of tumor-bearing mice treated with PI3K inhibitor BKM120 (Example 3). The note with it: Treatment Group 1: BKM120 37.5 mg/kg daily oral gavage with standard chow; not statistically different from Control (6.1 days). Type of test: in vivo, C57/BL6 mice. On the procedure:
In this experiment, β-hydroxybutyrate (βHB) in formulations of the disclosure was tested for its ability to enhance the efficacy of PI3K inhibitors and compared to a ketogenic diet.
In vivo tests were performed as follows: C57/BL6 mice 8 weeks of age They were injected with […] cells in a 1:1 mix of growth media and matrigel. and tumors were allowed to grow to a minimum diameter of 0.6 cm before the initiation of treatment. All mice were treated daily with the P3K inhibitor BKM120 (37.5 mg/kg) by oral gavage and were given either a normal chow diet, a ketogenic diet, or a normal chow diet with there topically applied βHB. Trial design was built to assess this primary outcome: survival time. Treatment groups randomized as follows: […]
b. Treatment Group 1: BKM120 treatment with standard rodent chow c. Treatment Group 2: BKM120 treatment with ketogenic rodent chow d. Treatment Group 3: BKM120 treatment with standard rodent chow with 100 μL of βHB formulation applied topically twice daily. Formulations detailed below

The nature of test [1]: Time to complete an 8 arm radial maze (Example 4). It counts as in vivo, Wistar rats. The note with it: 5 days; topical = Formulation D 100 μL twice daily; ketone ester as 30% of calories. On the procedure: (§1) In vivo tests were performed as follows: Wistar rats were treated with either topically applied βHB or a ketone ester diet. The experiment lasted for 5 days. Trial design was built to assess these primary outcomes: the effects on distance run on a treadmill, and on time to complete an 8 arm radial maze. Treatment groups randomized as follows: a. Control Group: standard diet (calorically matched to all treatment groups) b. Treatment Group 1: ketone ester diet with chow that is supplemented with (R)-3-hydroxybutyl (R)-3-hydroxybutyrate as 30% of calories c. […] Formulations detailed below [table]

Test [2] can be described thus: Distance run on a treadmill (Example 4). It counts as in vivo, Wistar rats. The note with it: 5 days; topical = Formulation D 100 μL twice daily; ketone ester as 30% of calories. As for the experimental part:
as §1

Test [3] can be described thus: Blood glucose levels in rats after ketone supplements (Example 5). It counts as in vivo, Sprague-Dawley rats. The note with it: 10 g/kg intragastric gavage; 4-week study.
Description: In this experiment, β-hydroxybutyrate (βHB) in formulations of the disclosure was tested for its ability to impact blood ketone and glucose levels and compared to oral delivery of various exogenous ketone supplements.
The experiment lasted for 28 days. Trial design was built to assess these primary outcomes: the effects on blood ketones and blood glucose. Blood samples were taken for analysis of glucose and βHB at baseline and, 0.5, 1, 4, 8, and 12 h post-treatment. Treatment groups randomized as follows:
Treatment Group 1: daily 10 g/kg dose via intragastric gavage of 1,3-butanediol (BD)
Treatment Group 2: daily 10 g/kg dose via intragastric gavage of sodium/potassium β-hydroxybutyrate (βHB) mineral salt (BMS)
Treatment Group 3: daily 10 g/kg dose via intragastric gavage of medium chain triglyceride oil (MCT)
Treatment Group 5: daily 10 g/kg dose via intragastric gavage of 1,3 butanediol acetoacetate diester (KE)
g. Treatment Group 6: 100 μL of βHB formulation applied topically daily.
In test [4] the test system is firefly luciferase-tagged syngeneic VM-M3 cells. The experiment in a line: Survival of VM mice with metastatic cancer (Example 2). It counts as in vivo. The note with it: VM-M3 implanted VM mice. As for the experimental part: In this experiment, β-hydroxybutyrate (βHB) in formulations of the disclosure was tested for its ability to decrease tumor cell viability and prolong survival and compared to an orally delivered diet supplemented with either 1,3-butanediol (BD) or a ketone ester (KE), which are metabolized to the ketone bodies βHB and acetoacetate.
In vivo tests were performed as follows: Adult male inbred VM mice were implanted subcutaneously with firefly luciferase-tagged syngeneic VM-M3 cells. The mice were then fed a standard diet with no topical treatment, a standard diet supplemented with either 1,3-butanediol (BD) or a ketone ester (KE), or a standard diet with topically applied βHB. Trial design was built to assess this primary outcome: survival time. Treatment groups randomized as follows: […]
a. Control Group: standard diet rodent chow b. Treatment Group 1: standard diet rodent chow mixed with 20% 1,3-butanediol (BD) by volume and 1% saccharin for palatability c. Treatment Group 2: standard diet rodent chow mixed with 10% ketone esters (KE) by volume and 1% saccharin for palatability d. Treatment Group 3: standard diet rodent chow with 100 μL of βHB formulation applied topically twice daily. Formulations detailed below

The record followed here is patent US20210338613A1, “FORMULATIONS AND METHODS FOR TRANSDERMAL ADMINISTRATION OF KETONES” (DYVE BIOSCIENCES, INC., priority 2018, published 2021).

Take `Nc1cc(C(F)(F)F)c(-c2cc(N3CCOCC3)nc(N3CCOCC3)n2)cn1` [BKM120]: the mean survival time in the test with tumors worked out at 6.7 days.

Regarding `C[C@@H](O)CCOC(=O)C[C@@H](C)O` [ketone ester diet, (R)-3-hydroxybutyl (R)-3-hydroxybutyrate], the “mean decrease in time to solve the maze vs control” value in test [1] was 38%. In test [2], the “mean increase in treadmill distance vs control” value stood at 32%.

`CC(O)CCO` (stereo not drawn) [oral BD, 1,3-butanediol]: in test [3], the “effect on blood glucose” value is “did not significantly change blood glucose levels at any time point”. For the same compound, the “mean increase in mean survival time versus Control Group” value in test [4] (BD 20% or KE 10% in chow, topical = Formulation B 100 μL twice daily) is 50.6%. In addition, in test [4] (Control Group 31.2 days, topical = Formulation B), the mean survival time amounted to 47.0 days.
